A short description of series [1]: Bidirectional transport assay, efflux ratio in Abcb1KO-MDCKII-Mock control cells. The following applies: dog, MDCK, pH 7.4. As for the experimental part: (§1) Eluent A consisted of 0.1% formic acid in water, eluent B consisted of 0.1% formic acid in acetonitrile. Then, 10 µL samples were injected into the HPLC-MS/MS system. Mass spectrometric detection was performed in SRM mode, and ion transitions for each analyte were optimized during method development. Samples were analyzed in pools, with each pool containing three to four analytes.

Series [2] deals with human MDR1 (Homo sapiens, UniProt P08183). In words: Bidirectional transport assay, efflux ratio in Abcb1KO-MDCKII hMDR1 cells. Particulars: human, MDCK-MDR1, pH 7.4. The procedure: as §1
human MDR1, sequence (P08183 whole entry): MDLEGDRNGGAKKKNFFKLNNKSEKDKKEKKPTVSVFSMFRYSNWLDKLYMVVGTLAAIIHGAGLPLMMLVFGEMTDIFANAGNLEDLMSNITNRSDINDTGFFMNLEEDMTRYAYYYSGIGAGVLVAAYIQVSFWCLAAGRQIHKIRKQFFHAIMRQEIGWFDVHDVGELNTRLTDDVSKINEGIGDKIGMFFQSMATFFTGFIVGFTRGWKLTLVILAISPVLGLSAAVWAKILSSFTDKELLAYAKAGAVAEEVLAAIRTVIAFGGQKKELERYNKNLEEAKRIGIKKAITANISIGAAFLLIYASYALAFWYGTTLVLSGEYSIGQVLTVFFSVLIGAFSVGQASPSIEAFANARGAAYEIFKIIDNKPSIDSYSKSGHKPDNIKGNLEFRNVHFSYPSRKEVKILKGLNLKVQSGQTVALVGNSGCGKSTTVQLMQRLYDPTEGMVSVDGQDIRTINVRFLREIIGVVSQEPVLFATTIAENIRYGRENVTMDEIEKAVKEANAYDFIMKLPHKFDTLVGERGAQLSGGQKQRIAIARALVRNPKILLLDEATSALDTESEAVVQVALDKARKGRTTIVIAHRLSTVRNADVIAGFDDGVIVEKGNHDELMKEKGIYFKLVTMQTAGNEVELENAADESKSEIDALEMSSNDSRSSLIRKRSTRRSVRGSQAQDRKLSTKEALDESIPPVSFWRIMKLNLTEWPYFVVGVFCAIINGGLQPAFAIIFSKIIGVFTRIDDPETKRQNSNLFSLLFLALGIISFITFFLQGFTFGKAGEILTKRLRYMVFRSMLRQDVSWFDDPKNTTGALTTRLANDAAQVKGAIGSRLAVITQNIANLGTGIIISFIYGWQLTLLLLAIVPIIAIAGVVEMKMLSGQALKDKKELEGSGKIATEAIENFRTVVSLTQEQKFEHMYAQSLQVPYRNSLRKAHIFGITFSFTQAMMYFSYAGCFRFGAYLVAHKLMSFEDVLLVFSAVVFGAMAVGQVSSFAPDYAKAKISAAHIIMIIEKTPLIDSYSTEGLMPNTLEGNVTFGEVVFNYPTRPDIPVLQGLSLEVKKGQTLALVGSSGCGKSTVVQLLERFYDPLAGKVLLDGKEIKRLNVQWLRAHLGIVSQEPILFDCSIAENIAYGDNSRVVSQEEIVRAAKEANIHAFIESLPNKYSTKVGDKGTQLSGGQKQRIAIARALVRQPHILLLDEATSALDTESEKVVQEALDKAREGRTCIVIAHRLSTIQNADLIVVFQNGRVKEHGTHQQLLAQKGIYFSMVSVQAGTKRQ
Series [3] has as its target rat Mdr1a (Rattus norvegicus, UniProt Q6PSM0). Put plainly: Bidirectional transport assay, efflux ratio in Abcb1KO-MDCKII rMDR1 cells. The following applies: rat, pH 7.4. The procedure: as §1
The target in series [4] is mouse Mdr1a (Mus musculus, UniProt P21447). In words: Bidirectional transport assay, efflux ratio in Abcb1KO-MDCKII mMDR1 cells. Particulars: mouse, pH 7.4. As for the experimental part: as §1
mouse Mdr1a, sequence (P21447 whole entry): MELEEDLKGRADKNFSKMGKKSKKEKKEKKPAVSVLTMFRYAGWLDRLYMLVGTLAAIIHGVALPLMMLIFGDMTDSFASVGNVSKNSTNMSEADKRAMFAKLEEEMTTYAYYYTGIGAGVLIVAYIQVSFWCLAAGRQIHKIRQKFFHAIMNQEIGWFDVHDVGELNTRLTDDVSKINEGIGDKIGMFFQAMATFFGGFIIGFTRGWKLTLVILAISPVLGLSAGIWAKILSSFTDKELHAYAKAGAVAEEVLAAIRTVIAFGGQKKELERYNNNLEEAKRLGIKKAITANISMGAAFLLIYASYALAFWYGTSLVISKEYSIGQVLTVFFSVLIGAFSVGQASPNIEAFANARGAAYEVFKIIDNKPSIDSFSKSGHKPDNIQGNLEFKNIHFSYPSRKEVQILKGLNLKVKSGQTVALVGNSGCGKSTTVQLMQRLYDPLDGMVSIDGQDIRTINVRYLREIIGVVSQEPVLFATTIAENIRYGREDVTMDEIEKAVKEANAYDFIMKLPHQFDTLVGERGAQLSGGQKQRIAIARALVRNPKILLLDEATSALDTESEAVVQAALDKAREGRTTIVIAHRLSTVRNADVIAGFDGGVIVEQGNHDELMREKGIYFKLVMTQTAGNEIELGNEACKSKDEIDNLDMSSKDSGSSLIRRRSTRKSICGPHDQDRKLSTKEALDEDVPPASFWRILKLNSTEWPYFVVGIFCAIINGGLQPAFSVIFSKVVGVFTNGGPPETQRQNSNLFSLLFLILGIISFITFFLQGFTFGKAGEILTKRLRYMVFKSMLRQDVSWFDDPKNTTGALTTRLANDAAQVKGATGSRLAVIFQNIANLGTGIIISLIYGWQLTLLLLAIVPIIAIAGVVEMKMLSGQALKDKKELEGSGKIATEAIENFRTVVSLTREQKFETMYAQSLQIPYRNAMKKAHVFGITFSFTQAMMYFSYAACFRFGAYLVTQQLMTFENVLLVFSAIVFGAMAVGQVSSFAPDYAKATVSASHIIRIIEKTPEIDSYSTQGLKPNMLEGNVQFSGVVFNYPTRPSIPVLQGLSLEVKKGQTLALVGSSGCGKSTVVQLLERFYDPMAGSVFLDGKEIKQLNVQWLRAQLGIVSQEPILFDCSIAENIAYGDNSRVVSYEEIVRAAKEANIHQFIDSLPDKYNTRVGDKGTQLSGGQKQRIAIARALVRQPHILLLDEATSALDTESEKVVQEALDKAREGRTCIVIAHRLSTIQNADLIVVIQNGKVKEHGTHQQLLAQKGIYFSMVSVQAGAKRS
The target in series [5] is cynomolgus monkey Mdr1 (Macaca fascicularis, UniProt Q8HZQ6). In words: Bidirectional transport assay, efflux ratio in Abcb1KO-MDCKII cyMDR1 cells. Particulars: cynomolgus monkey, pH 7.4. As for the experimental part:
as §1

The target in series [6] is T1, human BCRP (Homo sapiens, UniProt Q9UNQ0).
T1 sequence (Q9UNQ0 1-655): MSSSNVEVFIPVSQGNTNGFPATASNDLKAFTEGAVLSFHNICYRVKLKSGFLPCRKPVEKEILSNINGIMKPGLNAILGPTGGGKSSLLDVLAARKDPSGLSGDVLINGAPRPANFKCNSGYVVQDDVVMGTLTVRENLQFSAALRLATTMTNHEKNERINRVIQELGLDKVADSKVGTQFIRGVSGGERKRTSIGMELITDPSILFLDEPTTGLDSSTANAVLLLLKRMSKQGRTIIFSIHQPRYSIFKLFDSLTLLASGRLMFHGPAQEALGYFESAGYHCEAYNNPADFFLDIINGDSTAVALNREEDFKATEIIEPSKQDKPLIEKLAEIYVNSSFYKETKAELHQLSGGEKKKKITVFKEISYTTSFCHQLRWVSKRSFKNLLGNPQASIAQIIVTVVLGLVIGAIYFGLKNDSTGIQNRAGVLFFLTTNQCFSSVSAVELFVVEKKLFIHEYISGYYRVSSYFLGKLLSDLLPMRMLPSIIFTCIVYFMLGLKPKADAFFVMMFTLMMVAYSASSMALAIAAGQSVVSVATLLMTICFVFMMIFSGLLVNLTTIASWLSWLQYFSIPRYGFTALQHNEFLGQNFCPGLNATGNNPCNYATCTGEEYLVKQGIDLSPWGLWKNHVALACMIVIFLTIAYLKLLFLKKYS
In words: Bidirectional transport assay, efflux ratio in MDCKII-BCRP cells. The following applies: human, pH 7.4. As for the experimental part: as §1

Drawing on paper PMC11207571, “Applicability of MDR1 Overexpressing Abcb1KO-MDCKII Cell Lines for Investigating In Vitro Species Differences and Brain Penetration Prediction” (Pharmaceutics, 2024), this text covers efflux ratio for 21 compounds.

Molecules are shown by their SMILES.

cynomolgus monkey Mdr1, sequence (Q8HZQ6 1-1283): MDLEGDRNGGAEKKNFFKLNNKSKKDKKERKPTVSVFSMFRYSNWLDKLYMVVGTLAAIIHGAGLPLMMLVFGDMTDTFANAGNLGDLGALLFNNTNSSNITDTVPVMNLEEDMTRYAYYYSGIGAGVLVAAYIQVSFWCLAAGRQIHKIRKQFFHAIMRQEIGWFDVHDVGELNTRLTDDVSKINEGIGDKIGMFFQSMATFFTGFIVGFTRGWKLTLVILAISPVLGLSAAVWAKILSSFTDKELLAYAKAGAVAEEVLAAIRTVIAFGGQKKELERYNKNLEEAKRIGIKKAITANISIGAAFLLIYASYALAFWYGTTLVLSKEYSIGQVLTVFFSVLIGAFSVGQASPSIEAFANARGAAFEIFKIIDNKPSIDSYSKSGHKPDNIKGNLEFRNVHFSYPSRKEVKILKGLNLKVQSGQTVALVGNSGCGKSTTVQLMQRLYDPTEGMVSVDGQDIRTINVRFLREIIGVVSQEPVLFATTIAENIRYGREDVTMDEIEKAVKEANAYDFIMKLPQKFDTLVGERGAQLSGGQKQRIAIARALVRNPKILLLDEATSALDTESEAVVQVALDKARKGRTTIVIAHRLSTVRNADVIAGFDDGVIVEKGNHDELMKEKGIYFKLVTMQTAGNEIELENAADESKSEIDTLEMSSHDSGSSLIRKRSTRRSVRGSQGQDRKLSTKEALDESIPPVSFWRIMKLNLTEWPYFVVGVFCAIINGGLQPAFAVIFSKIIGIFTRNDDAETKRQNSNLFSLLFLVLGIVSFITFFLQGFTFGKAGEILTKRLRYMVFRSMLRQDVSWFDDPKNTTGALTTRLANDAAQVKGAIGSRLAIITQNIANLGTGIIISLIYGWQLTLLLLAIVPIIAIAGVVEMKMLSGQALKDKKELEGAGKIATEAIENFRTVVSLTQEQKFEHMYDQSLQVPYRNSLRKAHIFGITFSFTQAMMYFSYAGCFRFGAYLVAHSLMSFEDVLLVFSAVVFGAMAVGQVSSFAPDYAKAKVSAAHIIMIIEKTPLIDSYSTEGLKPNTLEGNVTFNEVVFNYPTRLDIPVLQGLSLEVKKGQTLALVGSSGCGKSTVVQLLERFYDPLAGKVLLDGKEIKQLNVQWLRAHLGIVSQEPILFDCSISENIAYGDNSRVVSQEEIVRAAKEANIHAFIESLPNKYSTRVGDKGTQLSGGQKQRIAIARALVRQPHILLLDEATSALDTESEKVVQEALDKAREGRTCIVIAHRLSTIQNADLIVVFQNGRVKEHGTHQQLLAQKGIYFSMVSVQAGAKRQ
rat Mdr1a, sequence (Q6PSM0 1-1272): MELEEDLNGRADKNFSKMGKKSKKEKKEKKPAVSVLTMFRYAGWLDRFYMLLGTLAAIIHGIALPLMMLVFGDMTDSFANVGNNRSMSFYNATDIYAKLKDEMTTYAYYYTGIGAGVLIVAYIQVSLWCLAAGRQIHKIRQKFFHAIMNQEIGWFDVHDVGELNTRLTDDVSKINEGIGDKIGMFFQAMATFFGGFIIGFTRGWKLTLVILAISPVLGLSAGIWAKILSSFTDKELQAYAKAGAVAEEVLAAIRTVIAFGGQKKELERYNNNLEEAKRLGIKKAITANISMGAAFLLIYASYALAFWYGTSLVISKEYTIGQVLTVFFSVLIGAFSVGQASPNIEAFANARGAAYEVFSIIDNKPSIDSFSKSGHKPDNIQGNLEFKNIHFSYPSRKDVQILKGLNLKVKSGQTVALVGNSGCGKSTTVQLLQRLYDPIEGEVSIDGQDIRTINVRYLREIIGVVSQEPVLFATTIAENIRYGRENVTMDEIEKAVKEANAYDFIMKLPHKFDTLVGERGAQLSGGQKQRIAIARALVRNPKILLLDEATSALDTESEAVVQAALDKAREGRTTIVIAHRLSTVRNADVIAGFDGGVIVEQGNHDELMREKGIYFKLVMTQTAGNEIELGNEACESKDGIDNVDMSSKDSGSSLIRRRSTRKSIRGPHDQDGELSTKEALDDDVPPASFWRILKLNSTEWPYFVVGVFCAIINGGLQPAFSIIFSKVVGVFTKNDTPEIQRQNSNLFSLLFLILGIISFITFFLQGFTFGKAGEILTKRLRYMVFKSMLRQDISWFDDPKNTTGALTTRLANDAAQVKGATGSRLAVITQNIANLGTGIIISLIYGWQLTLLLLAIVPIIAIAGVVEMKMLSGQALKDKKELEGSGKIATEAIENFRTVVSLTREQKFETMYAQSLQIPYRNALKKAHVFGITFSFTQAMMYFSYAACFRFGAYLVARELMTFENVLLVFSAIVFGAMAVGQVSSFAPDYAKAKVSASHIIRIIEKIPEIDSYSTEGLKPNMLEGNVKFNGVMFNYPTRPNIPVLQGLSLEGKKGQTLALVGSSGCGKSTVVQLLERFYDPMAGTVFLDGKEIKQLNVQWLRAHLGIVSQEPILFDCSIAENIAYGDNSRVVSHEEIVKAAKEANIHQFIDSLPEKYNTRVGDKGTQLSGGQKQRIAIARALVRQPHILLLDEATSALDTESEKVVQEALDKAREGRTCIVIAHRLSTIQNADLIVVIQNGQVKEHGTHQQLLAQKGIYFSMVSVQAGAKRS

For `O=C(O)CCCN1CCC(O[C@@H](c2ccc(Cl)cc2)c2ccccn2)CC1` [Bepotastine], the efflux ratio at 120 min, 1 µM in series [1] is 1.62 ± 0.17; in series [2] it was 9.51 ± 0.45; in series [3], 8.86 ± 1.16; in series [4], 10 ± 1.31; in series [5] it was 7.91 ± 1.59; in series [6] it was 2.19 ± 0.3.
Turning to `Clc1cccc(Cl)c1N=C1NCCN1` [Clonidine], the efflux ratio at 120 min, 1 µM in series [1] was determined as 0.93 ± 0.03; in series [2], 0.78 ± 0.02; in series [3] it was 0.98 ± 0.05; in series [4] it was 0.99 ± 0.06; in series [5] it was 0.8 ± 0.05; in series [6] it was 0.89 ± 0.04.
As to `CC(C)C[C@H]1C(=O)N2CCC[C@H]2[C@]2(O)O[C@](NC(=O)[C@@H]3C=C4c5cccc6[nH]c(Br)c(c56)C[C@H]4N(C)C3)(C(C)C)C(=O)N12` [Bromocriptine], the efflux ratio at 120 min, 1 µM amounted to 0.68 ± 0.07 in series [1]; 4.85 ± 0.39 in series [2]; 1.75 ± 0.09 in series [3]; 1.39 ± 0.1 in series [4]; 1.08 ± 0.67 in series [5]; 0.52 ± 0.05 in series [6].
Take `CN/C(=N/CCSCc1nc[nH]c1C)NC#N` [Cimetidine]: the efflux ratio at 120 min, 1 µM in series [1] was found to be 1.42 ± 0.19; in series [2], 6.98 ± 0.72; in series [3] it was 9.86 ± 0.98; in series [4], 2.83 ± 0.37; in series [5], 2.75 ± 0.32; in series [6] it was 72.5 ± 11.5.
On to `O=C1c2c(O)ccc(O)c2C(=O)c2c(NCCNCCO)ccc(NCCNCCO)c21` [Mitoxantrone], for which the efflux ratio at 120 min, 1 µM was found to be 1.15 ± 0.14 in series [1]; 5.66 ± 0.54 in series [2]; 17.6 ± 1.56 in series [3]; 28.6 ± 4.05 in series [4]; 40.3 ± 2.47 in series [5]; 55.6 ± 10.8 in series [6].
In the case of `CC/C(=C(\c1ccccc1)c1ccc(OCCN(C)C)cc1)c1ccccc1` [Tamoxifen], the efflux ratio at 120 min, 1 µM in series [1] turned out to be 2.25 ± 1.24; in series [2], 1.65 ± 0.24; in series [3], 1.61 ± 0.18; in series [4], 2.26 ± 0.76; in series [5], 1.81 ± 0.51; in series [6] it was 0.81 ± 0.14.
For the compound `CN(C)CCc1c[nH]c2ccc(C[C@H]3COC(=O)N3)cc12` [Zolmitriptan], the efflux ratio at 120 min, 1 µM in series [1] was found to be 0.97 ± 0.09; in series [2], 4.3 ± 0.26; in series [3], 2.69 ± 0.16; in series [4], 1.99 ± 0.16; in series [5] it was 2.24 ± 0.22; in series [6], 3.94 ± 0.25.
As for `CN(C)CCCN1c2ccccc2CCc2ccccc21` [Imipramine], the efflux ratio at 120 min, 1 µM in series [1] came out at 0.62 ± 0.04; in series [2], 1.08 ± 0.05; in series [3], 0.83 ± 0.08; in series [4], 0.9 ± 0.05; in series [5], 0.82 ± 0.09; in series [6], 0.6 ± 0.06.
Turning to `Cc1ccc(NC(=O)c2ccc(CN3CCN(C)CC3)cc2)cc1Nc1nccc(-c2cccnc2)n1` [Imatinib], the efflux ratio at 120 min, 1 µM amounted to 0.99 ± 0.11 in series [1]; 60.2 ± 4.74 in series [2]; 29.1 ± 1.26 in series [3]; 23.1 ± 1.52 in series [4]; 10.5 ± 0.6 in series [5]; 49.2 ± 0.99 in series [6].
Consider `COc1cc([C@@H]2c3cc4c(cc3[C@@H](O[C@@H]3O[C@@H]5CO[C@@H](C)O[C@H]5[C@H](O)[C@H]3O)[C@H]3COC(=O)[C@H]23)OCO4)cc(OC)c1O` [Etoposide], for which the efflux ratio at 120 min, 1 µM came out at 0.67 ± 0.08 in series [1]; 11.2 ± 0.8 in series [2]; 5.98 ± 0.85 in series [3]; 6.87 ± 1.42 in series [4]; 4.41 ± 0.91 in series [5]; 14 ± 2.31 in series [6].
As for `CN(C)CCC=C1c2ccccc2COc2ccccc21` [Doxepin], the efflux ratio at 120 min, 1 µM in series [1] is 0.68 ± 0.09; in series [2] it was 0.79 ± 0.13; in series [3], 1.09 ± 0.16; in series [4] it was 0.91 ± 0.11; in series [5] it was 0.71 ± 0.06; in series [6] it was 0.54 ± 0.07.
Consider `COc1ccc2c(c1)[C@]13CCCC[C@@H]1[C@H](C2)N(C)CC3` [Dextromethorphan], for which the efflux ratio at 120 min, 1 µM in series [1] worked out at 0.98 ± 0.1; in series [2], 1.03 ± 0.08; in series [3] it was 0.94 ± 0.09; in series [4], 0.78 ± 0.05; in series [5], 0.75 ± 0.06; in series [6], 0.66 ± 0.08.
For `CNC(=C[N+](=O)[O-])NCCSCc1ccc(CN(C)C)o1` [Ranitidine], the efflux ratio at 120 min, 1 µM was 0.91 ± 0.06 in series [1]; 2.89 ± 0.15 in series [2]; 2.63 ± 0.19 in series [3]; 2.09 ± 0.3 in series [4]; 2.14 ± 0.25 in series [5]; 10.3 ± 0.96 in series [6].
In the case of `CC(C)(C)c1ccc(C(O)CCCN2CCC(C(O)(c3ccccc3)c3ccccc3)CC2)cc1` (stereo not drawn) [Terfenadine], the efflux ratio at 120 min, 1 µM amounted to 0.88 ± 0.06 in series [1]; 10.7 ± 0.78 in series [2]; 1.29 ± 0.14 in series [3]; 2.64 ± 0.33 in series [4]; 0.92 ± 0.14 in series [5]; 2.96 ± 0.31 in series [6].
As to `Cc1ncc2n1-c1ccc(Cl)cc1C(c1ccccc1F)=NC2` [Midazolam], the efflux ratio at 120 min, 1 µM in series [1] stood at 0.43 ± 0.04; in series [2], 0.53 ± 0.03; in series [3] it was 0.28 ± 0.06; in series [4], 0.4 ± 0.06; in series [5], 0.43 ± 0.05; in series [6] it was 0.57 ± 0.06.
With `N=C(N)NC(=O)Cc1c(Cl)cccc1Cl` [Guanfacine], the efflux ratio at 120 min, 1 µM stood at 0.63 ± 0.06 in series [1]; 2.04 ± 0.21 in series [2]; 0.97 ± 0.12 in series [3]; 1.62 ± 0.16 in series [4]; 0.65 ± 0.11 in series [5]; 0.32 ± 0.08 in series [6].
Turning to `CC[C@]1(O)C[C@@H]2CN(CCc3c([nH]c4ccccc34)[C@@](C(=O)OC)(c3cc4c(cc3OC)N(C)[C@H]3[C@@](O)(C(=O)OC)[C@H](OC(C)=O)[C@]5(CC)C=CCN6CC[C@]43[C@@H]65)C2)C1` [Vinblastine], the efflux ratio at 120 min, 1 µM was found to be 1.32 ± 0.28 in series [1]; 51.6 ± 5.3 in series [2]; 61.2 ± 5.31 in series [3]; 50.5 ± 6.89 in series [4]; 61.4 ± 7.47 in series [5]; 22.9 ± 4.47 in series [6].
As for `Cc1cc(=O)n(-c2ccccc2)n1C` [Antipyrine], the efflux ratio at 120 min, 1 µM in series [1] stood at 0.65 ± 0.02; in series [2], 0.75 ± 0.05; in series [3], 0.65 ± 0.03; in series [4], 0.66 ± 0.04; in series [5] it was 0.67 ± 0.02; in series [6] it was 0.84 ± 0.02.
`COc1cc2ncnc(Nc3ccc(F)c(Cl)c3)c2cc1OCCCN1CCOCC1` [Gefitinib]: the efflux ratio at 120 min, 1 µM is 0.93 ± 0.11 in series [1]; 30.5 ± 1.66 in series [2]; 9.86 ± 0.85 in series [3]; 8.98 ± 0.82 in series [4]; 4.65 ± 0.62 in series [5]; 45.1 ± 7.77 in series [6].
For the compound `CC[C@H]1OC(=O)[C@H](C)[C@@H](O[C@H]2C[C@@](C)(OC)[C@@H](O)[C@H](C)O2)[C@H](C)[C@@H](O[C@@H]2O[C@H](C)C[C@H](N(C)C)[C@H]2O)[C@](C)(OC)C[C@@H](C)C(=O)[C@H](C)[C@@H](O)[C@]1(C)O` [Clarithromycin], the efflux ratio at 120 min, 1 µM came out at 0.53 ± 0.02 in series [1]; 96.2 ± 3.83 in series [2]; 25.1 ± 5.14 in series [3]; 27.5 ± 1.62 in series [4]; 17.2 ± 3.25 in series [5]; 11.1 ± 1.46 in series [6].
`Cc1nc2n(c(=O)c1CCN1CCC(c3noc4cc(F)ccc34)CC1)CCCC2O` (stereo not drawn) [Paliperidone]: the efflux ratio at 120 min, 1 µM amounted to 0.79 ± 0.1 in series [1]; 19.8 ± 2.06 in series [2]; 6.06 ± 1.45 in series [3]; 8.26 ± 0.88 in series [4]; 2.47 ± 0.41 in series [5]; 5.82 ± 1.79 in series [6].

The term efflux ratio denotes a quotient of directional permeabilities that is used to spot active efflux.
